Values after ≈ are worked out from the molar mass of the structure shown.
Legend:
Assay type in all cases: functional
[1] = test system: Mycoplasmoides pneumoniae; test: Antimicrobial activity against macrolide-resistant Mycoplasma pneumoniae isolate 6 with A2604G mutation by agar dilution method
[2] = test system: Mycoplasmoides pneumoniae; test: Antimicrobial activity against macrolide-resistant Mycoplasma pneumoniae isolate 2p with A2604G mutation by agar dilution method
[3] = test system: Mycoplasmoides pneumoniae; test: Antimicrobial activity against Mycoplasma pneumoniae isolate 18 by agar dilution method
[4] = test system: Mycoplasmoides pneumoniae; test: Antimicrobial activity against macrolide-resistant Mycoplasma pneumoniae isolate 685 with A2603G mutation by agar dilution method
[5] = test system: Mycoplasmoides pneumoniae; test: Antimicrobial activity against Mycoplasma pneumoniae isolate M129 by agar dilution method
[6] = test system: Mycoplasmoides pneumoniae; test: Antimicrobial activity against macrolide-resistant Mycoplasma pneumoniae isolate 1006 with A2603G mutation by agar dilution method
[7] = test system: Mycoplasmoides pneumoniae; test: Antimicrobial activity against macrolide-resistant Mycoplasma pneumoniae isolate 11 with A2604G mutation by agar dilution method
[8] = test system: Mycoplasmoides pneumoniae; test: Antimicrobial activity against Mycoplasma pneumoniae isolate 19 by agar dilution method
[9] = test system: Mycoplasmoides pneumoniae; test: Antimicrobial activity against Mycoplasma pneumoniae isolate FH by agar dilution method

SMILES | MIC [1] [mg/L] | MIC [2] [mg/L] | MIC [3] [mg/L] | MIC [4] [mg/L] | MIC [5] [mg/L] | MIC [6] [mg/L] | MIC [7] [mg/L] | MIC [8] [mg/L] | MIC [9] [mg/L]
CC[C@H]1OC(=O)[C@H](C)[C@@H](O[C@H]2C[C@@](C)(OC)[C@@H](O)[C@H](C)O2)[C@H](C)[C@@H](O[C@@H]2O[C@H](C)C[C@H](N(C)C)[C@H]2O)[C@](C)(O)C[C@@H](C)C(=O)[C@H](C)[C@@H](O)[C@]1(C)O [ERYTHROMYCIN] | 128 (≈ 174 µM) | 128 (≈ 174 µM) | 0.063 (≈ 0.0858 µM) | 128 (≈ 174 µM) | 0.063 (≈ 0.0858 µM) | 128 (≈ 174 µM) | 128 (≈ 174 µM) | 0.063 (≈ 0.0858 µM) | 0.063 (≈ 0.0858 µM)
CN(C)c1ccc(O)c2c1C[C@H]1C[C@H]3[C@H](N(C)C)C(O)=C(C(N)=O)C(=O)[C@@]3(O)C(O)=C1C2=O [MINOCYCLINE] | 0.125 (≈ 0.273 µM) | 0.25 (≈ 0.546 µM) | 0.125 (≈ 0.273 µM) | 0.125 (≈ 0.273 µM) | 0.25 (≈ 0.546 µM) | 0.125 (≈ 0.273 µM) | 0.125 (≈ 0.273 µM) | 0.125 (≈ 0.273 µM) | 0.25 (≈ 0.546 µM)
CN(C)[C@@H]1C(O)=C(C(N)=O)C(=O)[C@@]2(O)C(O)=C3C(=O)c4c(O)cccc4[C@@](C)(O)[C@H]3C[C@@H]12 [TETRACYCLINE] | 0.25 (≈ 0.563 µM) | 0.25 (≈ 0.563 µM) | 0.125 (≈ 0.281 µM) | 0.25 (≈ 0.563 µM) | 0.25 (≈ 0.563 µM) | 0.125 (≈ 0.281 µM) | 0.25 (≈ 0.563 µM) | 0.25 (≈ 0.563 µM) | 0.25 (≈ 0.563 µM)

From ChEMBL document CHEMBL1275504, “Detection of macrolide resistance in Mycoplasma pneumoniae by real-time PCR and high-resolution melt analysis” (2008)
